Measured values: ChEMBL document CHEMBL3098063, “Dammarane triterpenes from the leaves of Panax ginseng enhance cellular immunity” (Bioorg Med Chem, 2014)
Calls of active or inactive are those of the source.

Tests used:
Assay type in all cases: functional, cell-based
Splenocyte [1] = assay: Inhibition of IL-6 secretion in ConA-activated Balb/C mouse splenocytes at 100 ng/mL after 1 day by ELISA
[2] = system: Peritoneal macrophage cell; assay: Increase in IL-12 production in LPS-activated mouse peritoneal macrophages at 100 ng/mL after 1 day by ELISA
Splenocyte [3] = assay: Stimulation of IL-2 secretion in ConA-activated Balb/C mouse splenocytes at 100 ng/mL after 1 day by ELISA
Splenocyte [4] = assay: Inhibition of IL-4 secretion in ConA-activated Balb/C mouse splenocytes at 100 ng/mL after 1 day by ELISA
[5] = system: Peritoneal macrophage cell; assay: Inhibition of NO production in LPS-activated mouse peritoneal macrophages at 100 ng/mL after 1 day by ELISA

CC(C)=C[C@H]1C[C@](C)(O[C@@H]2O[C@H](CO)[C@@H](O)[C@H](O)[C@H]2O)[C@H]2CC[C@]3(C)[C@@H]2[C@@H](C[C@@H]2[C@@]4(C)CC[C@H](O)C(C)(C)[C@@H]4CC[C@]23C)O1
active: inhibition (Splenocyte [1]) | Activity [2] | Activity (Splenocyte [3]) | inhibition (Splenocyte [4]) | inhibition [5]

CC(C)=CCC[C@](C)(O)[C@H]1CC[C@]2(C)[C@@H]1[C@H](O)C[C@@H]1[C@@]3(C)CC[C@H](O)C(C)(C)[C@@H]3[C@@H](O[C@@H]3O[C@H](CO)[C@@H](O)[C@H](O)[C@H]3O[C@H]3O[C@@H](C)[C@H](O)[C@@H](O)[C@H]3O)C[C@]12C
active: inhibition (Splenocyte [1]) | Activity [2] | Activity (Splenocyte [3]) | inhibition (Splenocyte [4])

CC(=O)/C=C/C=C(\C)[C@H]1CC[C@]2(C)[C@@H]1[C@H](O)C[C@@H]1[C@@]3(C)CC[C@H](O)C(C)(C)[C@@H]3[C@@H](O)C[C@]12C
active: inhibition (Splenocyte [1]) | Activity [2] | Activity (Splenocyte [3]) | inhibition (Splenocyte [4]) | inhibition [5]
